Several values for one entry are separate records, joined by “and”; a condition that tells them apart may be missing. Identical values can stand only once.
Experiment: In vitro release testing (IVRT), static vertical diffusion cell, synthetic membrane, UV-VIS analysis
Format: physicochemical
Settings: for amount of xylene cyanol released into the water phase / release of Xylene Cyanol into the receptor fluid: ointment
Description: In Vitro Release Testing Method.
Release of pharmaceutically active compounds from semi-solid dosage forms was evaluated in an in vitro model of static vertical diffusion cell using a synthetic membrane model. […] The samples were analyzed using a UV-VIS spectrometer. […]
Test time points: 0, 2, 4, 6, 8, and 10 hours. Each test was conducted in four replicates (N=4). Square root of test time points: 0, 1.41, 2.00, 2.45, 2.83, and 3.16.
Membrane: Polypropylene (pore size: 0.45 micron).
Static vertical diffusion cell parameters: Area of the membrane diffusion area: 0.95 square centimeters.
Dosing level: infinite dose at about 3.0 milliliter of the semi-solid dosage form.
Static vertical diffusion cell consists of a donor and receptor compartment separated by a synthetic membrane. The dosing compartment was for the dosed semi-solid dosage form. […] Before dosing, the diffusion cell was pre-incubated at 32° C. for about 20 to 45 minutes. The t=0 samples were taken after the incubation period prior to dosing.
During the experiment, the receptor fluid was in intimate contact with the membrane through a mixing mechanism, such as, e.g., magnetic stirring bar, or orbit shaker, and maintained at 32° C. using a heating mechanism, such as, e.g., dry heat block, or circulating water bath. At each time point, entire content of the receptor fluid was collected and replaced with a fresh batch pre-incubated at 32° C.
An ointment dosage form was prepared as an example of the semi-solid dosage form. Petrolatum was heated to about 50 to 70° C. while mixing. Xylene Cyanol was added to the heated petrolatum while heating and mixing. The mixture was mixed until uniform. Then, the mixture was slowly cooled to room temperature while mixing to yield the ointment formulation.

- amount of xylene cyanol released (0.5% Xylene Cyanol in Petrolatum, infinite dose, biphasic receptor fluid: 1-Octanol:H2O 1:1 v:v, square root of time (hr) 0.00 (0 h, prior to dosing)): 0.0000 mcg/cm2
- amount of xylene cyanol released (0.5% Xylene Cyanol in Petrolatum, infinite dose, biphasic receptor fluid: 1-Octanol:PBS Buffer pH 7.4 1:1 v:v, square root of time 0.00 (0 h, prior to dosing)): 0.0000 mcg/cm2
- Slope - Average (0.5% Xylene Cyanol in Petrolatum, infinite dose, receptor fluid: 1-Octanol:H2O 1:1 v:v, N=4 runs): 2.2026 mcg/cm2/h^0.5
- Slope - Average (0.5% Xylene Cyanol in Petrolatum, infinite dose, receptor fluid: 1-Octanol:PBS Buffer pH 7.4 1:1 v:v): 1.0412 mcg/cm2/h^0.5
- amount of xylene cyanol released (0.5% Xylene Cyanol in Petrolatum, infinite dose, receptor fluid: 1-Octanol, square root of time (hr) 0.00 (0 h, prior to dosing)): BDL
- amount of xylene cyanol released (0.5% Xylene Cyanol in Petrolatum, infinite dose, receptor fluid: 1-Octanol, square root of time (hr) 1.41 (2 h)): BDL
- amount of xylene cyanol released (0.5% Xylene Cyanol in Petrolatum, infinite dose, receptor fluid: 1-Octanol, square root of time (hr) 2.00 (4 h)): BDL
- amount of xylene cyanol released (0.5% Xylene Cyanol in Petrolatum, infinite dose, receptor fluid: 1-Octanol, square root of time (hr) 2.45 (6 h)): BDL
- amount of xylene cyanol released (0.5% Xylene Cyanol in Petrolatum, infinite dose, receptor fluid: 1-Octanol, square root of time (hr) 2.83 (8 h)): BDL
- amount of xylene cyanol released (0.5% Xylene Cyanol in Petrolatum, infinite dose, receptor fluid: 1-Octanol, square root of time (hr) 3.16 (10 h)): BDL
- amount of xylene cyanol released (0.5% Xylene Cyanol in Petrolatum, infinite dose, receptor fluid: 1-octanol:ethanol 50:50 v:v, square root of time (hr) 0.00 (0 h, prior to dosing)): BDL
- amount of xylene cyanol released (0.5% Xylene Cyanol in Petrolatum, infinite dose, receptor fluid: 1-octanol:ethanol 50:50 v:v, square root of time (hr) 1.41 (2 h)): BDL
- amount of xylene cyanol released (0.5% Xylene Cyanol in Petrolatum, infinite dose, receptor fluid: 1-octanol:ethanol 50:50 v:v, square root of time (hr) 2.00 (4 h)): BDL
- amount of xylene cyanol released (0.5% Xylene Cyanol in Petrolatum, infinite dose, receptor fluid: 1-octanol:ethanol 50:50 v:v, square root of time (hr) 2.45 (6 h)): BDL
- amount of xylene cyanol released (0.5% Xylene Cyanol in Petrolatum, infinite dose, receptor fluid: 1-octanol:ethanol 50:50 v:v, square root of time (hr) 2.83 (8 h)): BDL
- amount of xylene cyanol released (0.5% Xylene Cyanol in Petrolatum, infinite dose, receptor fluid: 1-octanol:ethanol 50:50 v:v, square root of time (hr) 3.16 (10 h)): BDL
- amount of xylene cyanol released (0.5% Xylene Cyanol in Petrolatum, infinite dose, receptor fluid: Isopropyl alcohol:water 50:50 v:v, square root of time (hr) 0.00 (0 h, prior to dosing)): BDL
- amount of xylene cyanol released (0.5% Xylene Cyanol in Petrolatum, infinite dose, receptor fluid: Isopropyl alcohol:water 50:50 v:v, square root of time (hr) 1.41 (2 h)): BDL
- amount of xylene cyanol released (0.5% Xylene Cyanol in Petrolatum, infinite dose, receptor fluid: Isopropyl alcohol:water 50:50 v:v, square root of time (hr) 2.00 (4 h)): BDL
- amount of xylene cyanol released (0.5% Xylene Cyanol in Petrolatum, infinite dose, receptor fluid: Isopropyl alcohol:water 50:50 v:v, square root of time (hr) 2.45 (6 h)): BDL
- amount of xylene cyanol released (0.5% Xylene Cyanol in Petrolatum, infinite dose, receptor fluid: Isopropyl alcohol:water 50:50 v:v, square root of time (hr) 2.83 (8 h)): BDL
- amount of xylene cyanol released (0.5% Xylene Cyanol in Petrolatum, infinite dose, receptor fluid: Isopropyl alcohol:water 50:50 v:v, square root of time (hr) 3.16 (10 h)): BDL
- amount of xylene cyanol released (0.5% Xylene Cyanol in Petrolatum, infinite dose, receptor fluid: dimethyl sulfoxide:ethanol 50:50 v:v, square root of time (hr) 0.00 (0 h, prior to dosing)): BDL
- amount of xylene cyanol released (0.5% Xylene Cyanol in Petrolatum, infinite dose, receptor fluid: dimethyl sulfoxide:ethanol 50:50 v:v, square root of time (hr) 1.41 (2 h)): BDL
- amount of xylene cyanol released (0.5% Xylene Cyanol in Petrolatum, infinite dose, receptor fluid: dimethyl sulfoxide:ethanol 50:50 v:v, square root of time (hr) 2.00 (4 h)): BDL
- amount of xylene cyanol released (0.5% Xylene Cyanol in Petrolatum, infinite dose, receptor fluid: dimethyl sulfoxide:ethanol 50:50 v:v, square root of time (hr) 2.45 (6 h)): BDL
- amount of xylene cyanol released (0.5% Xylene Cyanol in Petrolatum, infinite dose, receptor fluid: dimethyl sulfoxide:ethanol 50:50 v:v, square root of time (hr) 2.83 (8 h)): BDL
- amount of xylene cyanol released (0.5% Xylene Cyanol in Petrolatum, infinite dose, receptor fluid: dimethyl sulfoxide:ethanol 50:50 v:v, square root of time (hr) 3.16 (10 h)): BDL
- amount of xylene cyanol released (0.5% Xylene Cyanol in Petrolatum, infinite dose, receptor fluid: dimethyl sulfoxide:isopropyl alcohol:water 30:30:40 v:v:v, square root of time (hr) 0.00 (0 h, prior to dosing)): BDL
- amount of xylene cyanol released (0.5% Xylene Cyanol in Petrolatum, infinite dose, receptor fluid: dimethyl sulfoxide:isopropyl alcohol:water 30:30:40 v:v:v, square root of time (hr) 1.41 (2 h)): BDL
- amount of xylene cyanol released (0.5% Xylene Cyanol in Petrolatum, infinite dose, receptor fluid: dimethyl sulfoxide:isopropyl alcohol:water 30:30:40 v:v:v, square root of time (hr) 2.00 (4 h)): BDL
- amount of xylene cyanol released (0.5% Xylene Cyanol in Petrolatum, infinite dose, receptor fluid: dimethyl sulfoxide:isopropyl alcohol:water 30:30:40 v:v:v, square root of time (hr) 2.45 (6 h)): BDL
- amount of xylene cyanol released (0.5% Xylene Cyanol in Petrolatum, infinite dose, receptor fluid: dimethyl sulfoxide:isopropyl alcohol:water 30:30:40 v:v:v, square root of time (hr) 2.83 (8 h)): BDL
- amount of xylene cyanol released (0.5% Xylene Cyanol in Petrolatum, infinite dose, receptor fluid: dimethyl sulfoxide:isopropyl alcohol:water 30:30:40 v:v:v, square root of time (hr) 3.16 (10 h)): BDL
- amount of xylene cyanol released (0.5% Xylene Cyanol in Petrolatum, infinite dose, receptor fluid: isopropyl alcohol, square root of time (hr) 0.00 (0 h, prior to dosing)): BDL
- amount of xylene cyanol released (0.5% Xylene Cyanol in Petrolatum, infinite dose, receptor fluid: isopropyl alcohol, square root of time (hr) 1.41 (2 h)): BDL
- amount of xylene cyanol released (0.5% Xylene Cyanol in Petrolatum, infinite dose, receptor fluid: isopropyl alcohol, square root of time (hr) 2.00 (4 h)): BDL
- amount of xylene cyanol released (0.5% Xylene Cyanol in Petrolatum, infinite dose, receptor fluid: isopropyl alcohol, square root of time (hr) 2.45 (6 h)): BDL
- amount of xylene cyanol released (0.5% Xylene Cyanol in Petrolatum, infinite dose, receptor fluid: isopropyl alcohol, square root of time (hr) 2.83 (8 h)): BDL
- amount of xylene cyanol released (0.5% Xylene Cyanol in Petrolatum, infinite dose, receptor fluid: isopropyl alcohol, square root of time (hr) 3.16 (10 h)): BDL
- Slope (release rate) (0.5% Xylene Cyanol in Petrolatum, infinite dose, receptor fluid: water, amount released vs square root of time): BDL
- amount of xylene cyanol released (0.5% Xylene Cyanol in Petrolatum, infinite dose, receptor fluid: water, square root of time (hr) 0.00 (0 h, prior to dosing)): BDL
- amount of xylene cyanol released (0.5% Xylene Cyanol in Petrolatum, infinite dose, receptor fluid: water, square root of time (hr) 1.41 (2 h)): BDL
- amount of xylene cyanol released (0.5% Xylene Cyanol in Petrolatum, infinite dose, receptor fluid: water, square root of time (hr) 2.00 (4 h)): BDL
- amount of xylene cyanol released (0.5% Xylene Cyanol in Petrolatum, infinite dose, receptor fluid: water, square root of time (hr) 2.45 (6 h)): BDL
- amount of xylene cyanol released (0.5% Xylene Cyanol in Petrolatum, infinite dose, receptor fluid: water, square root of time (hr) 2.83 (8 h)): BDL
- amount of xylene cyanol released (0.5% Xylene Cyanol in Petrolatum, infinite dose, receptor fluid: water, square root of time (hr) 3.16 (10 h)): BDL
- amount of xylene cyanol released into the water phase (biphasic receptor fluid 1-butanol:1-octanol:water 20:30:50 v:v:v): high amount
- amount of xylene cyanol released into the water phase (biphasic receptor fluid 1-hexanol:1-octanol:water 25:25:50 v:v:v): high amount
- amount of xylene cyanol released into the water phase (biphasic receptor fluid 1-hexanol:water 50:50 v:v): high amount
- amount of xylene cyanol released into the water phase (biphasic receptor fluid 1-octanol:PEG 400:water 40:20:40 v:v:v): higher amount
- amount of xylene cyanol released into the water phase (biphasic receptor fluid 1-octanol:ethanol:water 40:20:40 v:v:v): higher amount
- amount of xylene cyanol released into the water phase (biphasic receptor fluid 1-octanol:glycerin:water 40:20:40 v:v:v): higher amount
- amount of xylene cyanol released into the water phase (biphasic receptor fluid 1-octanol:isopropanol:water 40:20:40 v:v:v): higher amount
- amount of xylene cyanol released into the water phase (biphasic receptor fluid 1-octanol:propylene glycol:water 40:20:40 v:v:v): higher amount
- release of Xylene Cyanol into the receptor fluid (one-phase receptor fluid: 1-octanol): no release
- release of Xylene Cyanol into the receptor fluid (one-phase receptor fluid: 1-octanol:ethanol 50:50 v:v): no release
- release of Xylene Cyanol into the receptor fluid (one-phase receptor fluid: dimethyl sulfoxide:ethanol 50:50 v:v): no release
- release of Xylene Cyanol into the receptor fluid (one-phase receptor fluid: dimethyl sulfoxide:isopropyl alcohol:water 30:30:40 v:v:v): no release
- release of Xylene Cyanol into the receptor fluid (one-phase receptor fluid: isopropyl alcohol): no release
- release of Xylene Cyanol into the receptor fluid (one-phase receptor fluid: isopropyl alcohol:water 50 to 50 in volume): no release
- release of Xylene Cyanol into the receptor fluid (one-phase receptor fluid: water): no release
Structure (SMILES): CCN=C1C=CC(=C(c2ccc(NCC)c(C)c2)c2ccc(S(=O)(=O)[O-])cc2S(=O)(=O)O)C=C1C.[Na+] [Xylene Cyanol]
- amount of xylene cyanol released (0.5% Xylene Cyanol in Petrolatum, infinite dose, biphasic receptor fluid: 1-Octanol:H2O 1:1 v:v, square root of time (hr) 2.00 (4 h)): 1.2143 mcg/cm2 and 1.9575 mcg/cm2 and 1.4206 mcg/cm2 and 1.4438 mcg/cm2
- amount of xylene cyanol released (0.5% Xylene Cyanol in Petrolatum, infinite dose, biphasic receptor fluid: 1-Octanol:H2O 1:1 v:v, square root of time (hr) 2.45 (6 h)): 2.2025 mcg/cm2 and 3.0973 mcg/cm2 and 2.5204 mcg/cm2 and 2.5436 mcg/cm2
- amount of xylene cyanol released (0.5% Xylene Cyanol in Petrolatum, infinite dose, biphasic receptor fluid: 1-Octanol:H2O 1:1 v:v, square root of time (hr) 2.83 (8 h)): 3.1044 mcg/cm2 and 4.1192 mcg/cm2 and 3.3865 mcg/cm2 and 3.7213 mcg/cm2
- amount of xylene cyanol released (0.5% Xylene Cyanol in Petrolatum, infinite dose, biphasic receptor fluid: 1-Octanol:H2O 1:1 v:v, square root of time (hr) 3.16 (10 h)): 3.8674 mcg/cm2 and 4.8589 mcg/cm2 and 4.2884 mcg/cm2 and 4.5853 mcg/cm2
- amount of xylene cyanol released (0.5% Xylene Cyanol in Petrolatum, infinite dose, biphasic receptor fluid: 1-Octanol:PBS Buffer pH 7.4 1:1 v:v, square root of time 2.00 (4 h)): 0.3389 mcg/cm2 and 0.4105 mcg/cm2 and 0.5179 mcg/cm2 and 0.4295 mcg/cm2
- amount of xylene cyanol released (0.5% Xylene Cyanol in Petrolatum, infinite dose, biphasic receptor fluid: 1-Octanol:PBS Buffer pH 7.4 1:1 v:v, square root of time 2.45 (6 h)): 1.2295 mcg/cm2 and 1.3179 mcg/cm2 and 0.8863 mcg/cm2 and 0.9032 mcg/cm2
- amount of xylene cyanol released (0.5% Xylene Cyanol in Petrolatum, infinite dose, biphasic receptor fluid: 1-Octanol:PBS Buffer pH 7.4 1:1 v:v, square root of time 2.83 (8 h)): 1.3579 mcg/cm2 and 1.8147 mcg/cm2 and 1.4400 mcg/cm2 and 1.5937 mcg/cm2
- amount of xylene cyanol released (0.5% Xylene Cyanol in Petrolatum, infinite dose, biphasic receptor fluid: 1-Octanol:PBS Buffer pH 7.4 1:1 v:v, square root of time 3.16 (10 h)): 1.8884 mcg/cm2 and 2.4316 mcg/cm2 and 1.7305 mcg/cm2 and 1.9768 mcg/cm2

From patent US20180292376A1, “DIFFUSION CELL TESTING METHODS CONTAINING BIPHASIC RECEPTOR FLUIDS” (BUFFERAD Illinois Inc. d/b/a Zyleris PharmaTech, Inc., priority 2017, published 2018)
